Measured values reported in PubChem BioAssay (NCI).
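All cell lines were grown in 96-well plates and treated with compound for 48 hours. GI50 = concentration required for 50% inhibition of growth. TGI denotes the concentration required for complete inhibition of growth.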

tested on: 786-0 renal; assay: NCI anticancer screen, dose series, 48 h

| SMILES | TGI [µM] | GI50 [µM] |
| --- | --- | --- |
| O=C1C2c3[nH]c4ccccc4c3C3CCCCCCC3C2C(=O)N1c1ccccc1 (stereo unspecified) | 26.5 | – |
| CSC(C1c2ccccc2N(c2ccc(C)cc2)C2=NC(=O)N(C)C(=O)C21Cl)S(=O)(=O)c1ccc(C)cc1 (stereo unspecified) | 38.4 | – |
| O/N=C/C1c2ccccc2-c2ccccc21 | 21.9 | – |
| O=C(O)C(CS)N=c1c2ccccc2n(O)c2ccccc12 (stereo unspecified) | > 100 | – |
| CC(=O)CNC(=O)OC(C)(C)C | > 100 | – |
| CCOC(=O)[C]1([Bi]([CH3])[CH3])N=NC(C(=O)OC)=C1C(=O)OC (stereo unspecified) | 33.2 | 18.8 |

tested on: A498 renal; assay: NCI anticancer screen, dose series, 48 h

| SMILES | TGI [µM] | GI50 [µM] |
| --- | --- | --- |
| O=C1C2c3[nH]c4ccccc4c3C3CCCCCCC3C2C(=O)N1c1ccccc1 (stereo unspecified) | 39.9 | – |
| CSC(C1c2ccccc2N(c2ccc(C)cc2)C2=NC(=O)N(C)C(=O)C21Cl)S(=O)(=O)c1ccc(C)cc1 (stereo unspecified) | 92.7 | – |
| O/N=C/C1c2ccccc2-c2ccccc21 | 32.9 | – |
| O=C(O)C(CS)N=c1c2ccccc2n(O)c2ccccc12 (stereo unspecified) | > 100 | – |
| CC(=O)CNC(=O)OC(C)(C)C | > 100 | – |
| COC(=O)CN1CCSC1=NC#N | > 100 | – |
| CCOC(=O)[C]1([Bi]([CH3])[CH3])N=NC(C(=O)OC)=C1C(=O)OC (stereo unspecified) | 49 | 25.7 |

tested on: A549 NSCLC; assay: NCI anticancer screen, dose series, 48 h

| SMILES | TGI [µM] | GI50 [µM] |
| --- | --- | --- |
| O=C1C2c3[nH]c4ccccc4c3C3CCCCCCC3C2C(=O)N1c1ccccc1 (stereo unspecified) | 24.9 | – |
| CSC(C1c2ccccc2N(c2ccc(C)cc2)C2=NC(=O)N(C)C(=O)C21Cl)S(=O)(=O)c1ccc(C)cc1 (stereo unspecified) | > 100 | – |
| O/N=C/C1c2ccccc2-c2ccccc21 | 51.5 | – |
| O=C(O)C(CS)N=c1c2ccccc2n(O)c2ccccc12 (stereo unspecified) | > 100 | – |
| CC(=O)CNC(=O)OC(C)(C)C | > 100 | – |
| COC(=O)CN1CCSC1=NC#N | > 100 | – |
| CCOC(=O)[C]1([Bi]([CH3])[CH3])N=NC(C(=O)OC)=C1C(=O)OC (stereo unspecified) | > 10 | > 10 |

tested on: ACHN renal; assay: NCI anticancer screen, dose series, 48 h

| SMILES | TGI [µM] | GI50 [µM] |
| --- | --- | --- |
| O=C1C2c3[nH]c4ccccc4c3C3CCCCCCC3C2C(=O)N1c1ccccc1 (stereo unspecified) | 38.4 | – |
| CSC(C1c2ccccc2N(c2ccc(C)cc2)C2=NC(=O)N(C)C(=O)C21Cl)S(=O)(=O)c1ccc(C)cc1 (stereo unspecified) | > 100 | – |
| O/N=C/C1c2ccccc2-c2ccccc21 | 32.2 | – |
| O=C(O)C(CS)N=c1c2ccccc2n(O)c2ccccc12 (stereo unspecified) | > 100 | – |
| CC(=O)CNC(=O)OC(C)(C)C | > 100 | – |
| CCOC(=O)[C]1([Bi]([CH3])[CH3])N=NC(C(=O)OC)=C1C(=O)OC (stereo unspecified) | 32.4 | 18 |

tested on: BT-549 breast; assay: NCI anticancer screen, dose series, 48 h

| SMILES | TGI [µM] |
| --- | --- |
| O/N=C/C1c2ccccc2-c2ccccc21 | 33.1 |

tested on: CAKI-1 renal; assay: NCI anticancer screen, dose series, 48 h

| SMILES | TGI [µM] | GI50 [µM] |
| --- | --- | --- |
| CSC(C1c2ccccc2N(c2ccc(C)cc2)C2=NC(=O)N(C)C(=O)C21Cl)S(=O)(=O)c1ccc(C)cc1 (stereo unspecified) | 43.2 | – |
| O/N=C/C1c2ccccc2-c2ccccc21 | 33.2 | – |
| O=C(O)C(CS)N=c1c2ccccc2n(O)c2ccccc12 (stereo unspecified) | > 100 | – |
| CC(=O)CNC(=O)OC(C)(C)C | > 100 | – |
| CCOC(=O)[C]1([Bi]([CH3])[CH3])N=NC(C(=O)OC)=C1C(=O)OC (stereo unspecified) | 29.3 | 15.9 |

tested on: CCRF-CEM leukemia; assay: NCI anticancer screen, dose series, 48 h

| SMILES | TGI [µM] | GI50 [µM] |
| --- | --- | --- |
| O=C1C2c3[nH]c4ccccc4c3C3CCCCCCC3C2C(=O)N1c1ccccc1 (stereo unspecified) | 25.6 | – |
| CSC(C1c2ccccc2N(c2ccc(C)cc2)C2=NC(=O)N(C)C(=O)C21Cl)S(=O)(=O)c1ccc(C)cc1 (stereo unspecified) | 38 | – |
| O/N=C/C1c2ccccc2-c2ccccc21 | 50.4 | – |
| O=C(O)C(CS)N=c1c2ccccc2n(O)c2ccccc12 (stereo unspecified) | > 100 | – |
| CC(=O)CNC(=O)OC(C)(C)C | > 100 | – |
| COC(=O)CN1CCSC1=NC#N | > 100 | – |
| CCOC(=O)[C]1([Bi]([CH3])[CH3])N=NC(C(=O)OC)=C1C(=O)OC (stereo unspecified) | 37.6 | 11.3 |

tested on: COLO 205 colon; assay: NCI anticancer screen, dose series, 48 h

| SMILES | TGI [µM] | GI50 [µM] |
| --- | --- | --- |
| O=C1C2c3[nH]c4ccccc4c3C3CCCCCCC3C2C(=O)N1c1ccccc1 (stereo unspecified) | 28.6 | – |
| CSC(C1c2ccccc2N(c2ccc(C)cc2)C2=NC(=O)N(C)C(=O)C21Cl)S(=O)(=O)c1ccc(C)cc1 (stereo unspecified) | 36.6 | – |
| O/N=C/C1c2ccccc2-c2ccccc21 | 30.7 | – |
| O=C(O)C(CS)N=c1c2ccccc2n(O)c2ccccc12 (stereo unspecified) | > 100 | – |
| CCOC(=O)[C]1([Bi]([CH3])[CH3])N=NC(C(=O)OC)=C1C(=O)OC (stereo unspecified) | 35.9 | 19.8 |

tested on: DLD-1 colon; assay: NCI anticancer screen, dose series, 48 h

| SMILES | TGI [µM] | GI50 [µM] |
| --- | --- | --- |
| CSC(C1c2ccccc2N(c2ccc(C)cc2)C2=NC(=O)N(C)C(=O)C21Cl)S(=O)(=O)c1ccc(C)cc1 (stereo unspecified) | 33.5 | – |
| O=C(O)C(CS)N=c1c2ccccc2n(O)c2ccccc12 (stereo unspecified) | > 100 | – |
| CC(=O)CNC(=O)OC(C)(C)C | > 100 | – |
| CCOC(=O)[C]1([Bi]([CH3])[CH3])N=NC(C(=O)OC)=C1C(=O)OC (stereo unspecified) | 32.5 | 18.3 |

tested on: DMS 114 small cell lung; assay: NCI anticancer screen, dose series, 48 h

| SMILES | TGI [µM] | GI50 [µM] |
| --- | --- | --- |
| O=C1C2c3[nH]c4ccccc4c3C3CCCCCCC3C2C(=O)N1c1ccccc1 (stereo unspecified) | 17.5 | – |
| CSC(C1c2ccccc2N(c2ccc(C)cc2)C2=NC(=O)N(C)C(=O)C21Cl)S(=O)(=O)c1ccc(C)cc1 (stereo unspecified) | 49.8 | – |
| O=C(O)C(CS)N=c1c2ccccc2n(O)c2ccccc12 (stereo unspecified) | > 100 | – |
| CC(=O)CNC(=O)OC(C)(C)C | > 100 | – |
| CCOC(=O)[C]1([Bi]([CH3])[CH3])N=NC(C(=O)OC)=C1C(=O)OC (stereo unspecified) | 40 | 20 |

tested on: DMS 273 small cell lung; assay: NCI anticancer screen, dose series, 48 h

| SMILES | TGI [µM] | GI50 [µM] |
| --- | --- | --- |
| O=C1C2c3[nH]c4ccccc4c3C3CCCCCCC3C2C(=O)N1c1ccccc1 (stereo unspecified) | 29.8 | – |
| CSC(C1c2ccccc2N(c2ccc(C)cc2)C2=NC(=O)N(C)C(=O)C21Cl)S(=O)(=O)c1ccc(C)cc1 (stereo unspecified) | 47.9 | – |
| O=C(O)C(CS)N=c1c2ccccc2n(O)c2ccccc12 (stereo unspecified) | > 100 | – |
| CC(=O)CNC(=O)OC(C)(C)C | > 100 | – |
| COC(=O)CN1CCSC1=NC#N | > 100 | – |
| CCOC(=O)[C]1([Bi]([CH3])[CH3])N=NC(C(=O)OC)=C1C(=O)OC (stereo unspecified) | 59.1 | 22.5 |

tested on: DU-145 prostate; assay: NCI anticancer screen, dose series, 48 h

| SMILES | TGI [µM] |
| --- | --- |
| O/N=C/C1c2ccccc2-c2ccccc21 | 45.9 |

tested on: EKVX NSCLC; assay: NCI anticancer screen, dose series, 48 h

| SMILES | TGI [µM] | GI50 [µM] |
| --- | --- | --- |
| O=C1C2c3[nH]c4ccccc4c3C3CCCCCCC3C2C(=O)N1c1ccccc1 (stereo unspecified) | > 100 | – |
| CSC(C1c2ccccc2N(c2ccc(C)cc2)C2=NC(=O)N(C)C(=O)C21Cl)S(=O)(=O)c1ccc(C)cc1 (stereo unspecified) | > 100 | – |
| O/N=C/C1c2ccccc2-c2ccccc21 | 28.2 | – |
| O=C(O)C(CS)N=c1c2ccccc2n(O)c2ccccc12 (stereo unspecified) | > 100 | – |
| CC(=O)CNC(=O)OC(C)(C)C | > 100 | – |
| COC(=O)CN1CCSC1=NC#N | > 100 | – |
| CCOC(=O)[C]1([Bi]([CH3])[CH3])N=NC(C(=O)OC)=C1C(=O)OC (stereo unspecified) | 36.5 | 18.7 |

tested on: HCC-2998 colon; assay: NCI anticancer screen, dose series, 48 h

| SMILES | TGI [µM] | GI50 [µM] |
| --- | --- | --- |
| O=C1C2c3[nH]c4ccccc4c3C3CCCCCCC3C2C(=O)N1c1ccccc1 (stereo unspecified) | > 100 | – |
| CSC(C1c2ccccc2N(c2ccc(C)cc2)C2=NC(=O)N(C)C(=O)C21Cl)S(=O)(=O)c1ccc(C)cc1 (stereo unspecified) | 36.6 | – |
| O/N=C/C1c2ccccc2-c2ccccc21 | 31.9 | – |
| O=C(O)C(CS)N=c1c2ccccc2n(O)c2ccccc12 (stereo unspecified) | > 100 | – |
| CCOC(=O)[C]1([Bi]([CH3])[CH3])N=NC(C(=O)OC)=C1C(=O)OC (stereo unspecified) | 30.7 | 16.4 |

tested on: HCT-116 colon; assay: NCI anticancer screen, dose series, 48 h

| SMILES | TGI [µM] |
| --- | --- |
| CSC(C1c2ccccc2N(c2ccc(C)cc2)C2=NC(=O)N(C)C(=O)C21Cl)S(=O)(=O)c1ccc(C)cc1 (stereo unspecified) | 25.7 |
| O/N=C/C1c2ccccc2-c2ccccc21 | 32.8 |
| O=C(O)C(CS)N=c1c2ccccc2n(O)c2ccccc12 (stereo unspecified) | > 100 |
| CC(=O)CNC(=O)OC(C)(C)C | > 100 |

tested on: HCT-15 colon; assay: NCI anticancer screen, dose series, 48 h

| SMILES | TGI [µM] | GI50 [µM] |
| --- | --- | --- |
| O=C1C2c3[nH]c4ccccc4c3C3CCCCCCC3C2C(=O)N1c1ccccc1 (stereo unspecified) | > 100 | – |
| O/N=C/C1c2ccccc2-c2ccccc21 | 40.2 | – |
| O=C(O)C(CS)N=c1c2ccccc2n(O)c2ccccc12 (stereo unspecified) | > 100 | – |
| CCOC(=O)[C]1([Bi]([CH3])[CH3])N=NC(C(=O)OC)=C1C(=O)OC (stereo unspecified) | 49.6 | 20.7 |

tested on: HL-60(TB) leukemia; assay: NCI anticancer screen, dose series, 48 h

| SMILES | TGI [µM] |
| --- | --- |
| CSC(C1c2ccccc2N(c2ccc(C)cc2)C2=NC(=O)N(C)C(=O)C21Cl)S(=O)(=O)c1ccc(C)cc1 (stereo unspecified) | 12.6 |
| O/N=C/C1c2ccccc2-c2ccccc21 | 93.7 |
| O=C(O)C(CS)N=c1c2ccccc2n(O)c2ccccc12 (stereo unspecified) | > 100 |
